From patent US20080076147A1, “BIOFILM SAMPLING DEVICE” (BOARD OF TRUSTEES OF SOUTHERN ILLINOIS UNIVERSITY, priority 2006, published 2008)

What was measured:
Assay in all cases: Biocide kill of planktonic cells and biofilm on vascular catheter (serum flow model)
Type in all cases: cell-based
[1] = tested on: methicillin resistant Staphylococcus aureus (MRSA); details: biofilm on vascular catheter, 5 to 60 minutes, FIG. 14B
Escherichia coli = details: biofilm on vascular catheter, over all time periods (5 to 60 minutes), FIG. 12B
Pseudomonas aeruginosa = details: 5 to 60 minutes
From the text: (§1) A system as shown in FIG. 6 was used in this study. Serum and a biocide were placed in sealed bottles as the first fluid source 505 and the second fluid source 509, respectively. The fluid sources were connected to a pump 515 by conventional IV tubing. A second pump 531 was used to deliver the fluid mixture to the vascular catheter 3 positioned in the sampling apparatus 1.
(§2) Initially, only the first fluid source, serum inoculated with Acinetobacter baumanii (10×10^9 CFU/ml), was used to contaminate the catheter with planktonic cells. The inoculated fluid continuously flowed through IV tubing directly through the catheter for […] to form a layer of planktonic cells on the catheter. Fluid flow was then stopped and the tubing was then reconfigured as shown in FIG. 6 so that the second fluid source could be introduced. In these test runs, the first fluid source was inoculated with the same concentration of bacteria, and the second fluid source was a biocide (16-16,000 ppm) selected from hydrogen peroxide (H2O2), sodium hypochlorite (SHC), peracetic acid (PAA) and gluteraldehyde (GLT). The fluid mixture continuously flowed through the catheter for 5, 10, 15, 30, 45 or 60 minutes before fluid flow was discontinued to determine bacterial resistance of the planktonic cells on the catheter. In all, six runs were completed for each of four different biocides. After each run, the test catheter was then cut aseptically into 1 cm segments. The segments were transferred to test tubes containing one ml saline and the adherent cells were dislodged by sonication in an aquasonic device, vortexed for about one minute, and then counted on Tropic soya Agar. The number of viable cells were determined for each catheter and were compared to the number of viable cells in control samples (i.e., biocide-free serum) to calculate the biocide concentration required to kill 50% of the bacteria in the biofilm at the same time interval. Instead of saline, other appropriate buffer solutions can be used. In addition to plating cells on agar and counting the number of colonies, the amount of biofilm formed can be determined by a semiquantitive microtiter plate method. For example, adherent cells can be dislodged from test catheters as described above. The aliquots of solutions containing the cells from each catheter piece can then be added separately to wells of a 96-well tissue culture plate and incubated at 37° C. for 24 h. After several (e.g., three) washes with PBS, any remaining biofilm is stained with safranin O dye for 1 min and washed with PBS again. Optical density at 492 nm is determined with a 96-well plate spectrometer reader. For each time point, an aliquot without biocide is a positive control. Percent inhibition of biofilm accumulation can be determined from the formula (A492positive−A492biocide)/(A492positive−A492)×100%, Such plating methods are well known to one skilled in the art and could be modified as desired for analysis of the biofilm.
(§3) For determination of the bacterial resistance of the biofilm formed on the catheter, the method described above was repeated using the same conditions except that the inoculated fluid continuously flowed through the catheter for two hours before fluid flow was discontinued to form a biofilm on the catheter.
The experiment was repeated as described above, except that Pseudomonas aeruginosa (1×10^9 CFU/ml) was used to inoculate the serum.

Acinetobacter baumanii = details: biofilm on vascular catheter, 5 to 60 minutes, FIG. 10B
From the text: as §1
Initially, only the first fluid source, serum inoculated with Acinetobacter baumanii (10×10^9 CFU/ml), was used to contaminate the catheter with planktonic cells. The inoculated fluid continuously flowed through IV tubing directly through the catheter for […] to form a layer of planktonic cells on the catheter. […] The segments were transferred to test tubes containing one ml saline and the adherent cells were dislodged by sonication in an aquasonic device, vortexed for about one minute, and then counted on Tropic soya Agar. The number of viable cells were determined for each catheter and were compared to the number of viable cells in control samples (i.e., biocide-free serum) to calculate the biocide concentration required to kill 50% of the bacteria in the biofilm at the same time interval. […] In addition to plating cells on agar and counting the number of colonies, the amount of biofilm formed can be determined by a semiquantitive microtiter plate method. […]

Burkholderia cepacia = details: 5 to 60 minutes
From the text: as §1, §2, §3
The experiment was repeated as described above, except that Burkholderia cepacia (1×10^9 CFU/ml) was used to inoculate the serum.

Staphylococcus epidermis = details: 5 to 60 minutes
From the text: as §1, §2, §3
The experiment was repeated as described above, except that Staphylococcus epidermis (1×10^9 CFU/ml) was used to inoculate the serum.

[2] = tested on: Stenotrophomonas maltophilia; details: 5 to 60 minutes
From the text: as §1, §2, §3
The experiment was repeated as described above, except that Stenotrophomonas maltophilia (1×10^9 CFU/ml) was used to inoculate the serum.

Enterococcus faecalis = details: serum, 5 to 60 minutes

CC(=O)OO [PAA, peracetic acid]
biofilm kill (biocide concentration required to kill 50% of bacteria that grew in the biofilm) [1]: most effective
biofilm kill (biocide concentration required to kill 50% of bacteria that grew in the biofilm) (Escherichia coli): most effective
biofilm kill (biocide concentration required to kill 50% of bacteria that grew in the biofilm) (Pseudomonas aeruginosa; biofilm on vascular catheter, FIG. 16B): most effective
planktonic cell kill (biocide concentration required to kill 100% of bacteria present as planktonic cells) (Pseudomonas aeruginosa; planktonic cells on vascular catheter, FIG. 16A): performed comparably and were more effective than hydrogen peroxide and SHC
biofilm kill (biocide concentration required to kill 50% of bacteria that grew in the biofilm) (Acinetobacter baumanii): most effective
biofilm kill (biocide concentration required to kill 50% of bacteria that grew in the biofilm) (Burkholderia cepacia; biofilm on vascular catheter, FIG. 11B): most effective
planktonic cell kill (biocide concentration required to kill 100% of bacteria present as planktonic cells) (Burkholderia cepacia; planktonic cells on vascular catheter, FIG. 11A): performed comparably and were more effective than hydrogen peroxide
biofilm kill (biocide concentration required to kill 50% of bacteria that grew in the biofilm) (Staphylococcus epidermis; biofilm on vascular catheter, FIG. 15B): most effective
planktonic cell kill (biocide concentration required to kill 100% of bacteria present as planktonic cells) (Staphylococcus epidermis; planktonic cells on vascular catheter, FIG. 15A): performed similarly in planktonic cell kill and outperformed hydrogen peroxide
biofilm kill (biocide concentration required to kill 50% of bacteria that grew in the biofilm) ([2]; biofilm on vascular catheter, FIG. 17B): most effective
planktonic cell kill (biocide concentration required to kill 100% of bacteria present as planktonic cells) ([2]; planktonic cells on vascular catheter, FIG. 17A): GLT was somewhat more effective in killing planktonic cells as compared to SHC or PAA
biofilm kill (biocide concentration required to kill 50% of bacteria that grew in the biofilm) (Enterococcus faecalis; biofilm on vascular catheter, FIG. 13B): most effective
planktonic cell kill (biocide concentration required to kill 100% of bacteria present as planktonic cells) (Enterococcus faecalis; planktonic cells on vascular catheter, FIG. 13A): most effective
